According to PubChem BioAssay (NCI):
Several values for one entry are separate records, joined by “and”; a condition that tells them apart may be missing. Equal entries are not always repeated.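 Values below derive from 48-hour exposures of cells grown in 96-well plates, with endpoints linearly interpolated between the two concentrations bracketing the appropriate inhibition level. Abbreviation: GI50, concentration required for 50% inhibition of growth. TGI: concentration producing complete growth inhibition.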

Each molecule was assayed on MDA-MB-468 breast (assay: NCI-60 cell line screen, 48 h).

SMILES | GI50 | TGI
COc1cc(-c2n/c(=C\c3c(O)[nH]c4cc(Cl)ccc34)cc3c2=Nc2ccccc2-3)cc(OC)c1OC | 3.34 µM | 20.9 µM
OCCNCCCOc1ccc2ncnc(Nc3ccc(Oc4cccc(C(F)(F)F)c4)c(Cl)c3)c2c1 | 0.626 µM | 2.21 µM
CCC(=O)Nc1ccccc1C#C/C=C\C#Cc1ccccc1C(F)(F)F | 1.98 µM | > 14 µM
Cc1cc(N2CCCC2)nc(NCc2cc(Nc3ccnc4cc(Cl)ccc34)ccc2F)n1 | 1.14 µM | 2.61 µM
NCCOc1ccccc1/C=C1\c2ccccc2-c2ccc([N+](=O)[O-])cc21 | 1.54 µM | 3.11 µM
COc1cc(N2CCN(C(C)C)CC2)ccc1Nc1nc(Nc2cccc(F)c2C(=O)O)c2cc[nH]c2n1 | > 25 µM | > 25 µM
C[C@]1(Cn2ccnn2)C(C(=O)O)N2C(=O)CC2S1(=O)=O (stereo not given in full) | > 100 µM | > 100 µM
CN1CCN(Cc2ccc(NC(=O)c3cncc(C#Cc4cncc5nccnc45)c3)cc2C(F)(F)F)CC1 | 7.06 µM | 15.9 µM
CCCCc1n(Cc2ccc3ccccc3c2)cc[n+]1Cc1ccc2ccccc2c1 | 0.297 µM | 1.13 µM
COc1cc(-c2cc(/C=C/C(=O)c3ccc(Cl)c(Cl)c3)[nH]n2)cc(OC)c1OC | 1.98 µM | 7.22 µM
COCCN1CCN(Cc2ccc(-c3n[nH]c4c3C(=O)c3c(NC(=O)NN5CCOCC5)cccc3-4)cc2)CC1 | 0.0198 µM | 0.0669 µM
COc1cc2ncnc(Nc3ccc4c(cnn4Cc4ccccc4)c3)c2cc1OC | 0.0596 µM | 0.584 µM
COc1ccc(Cn2cc3c(c2-c2cc(OC)c(OC)c(OC)c2)CCc2c(CN4CCOCC4)noc2-3)cc1 | 0.453 µM | > 100 µM
CCc1cc2ncc(CN3CCN(c4ccc(C(=O)NC)nc4)CC3)cc2[nH]c1=O | 13.3 µM | > 100 µM
O=C1Nc2ccccc2/C1=C\c1nc(C2CCN(S(=O)(=O)c3ccc(F)cc3)CC2)n2ccccc12 | 3.92 µM | > 100 µM
c1cncc(C2Nc3cccc4cccc(c34)N2)c1 | 2.93 µM | 16.7 µM
Cc1ccc(C(SCC(N)C(=O)O)(c2ccccc2)c2ccccc2)cc1 (stereo not given) | 0.0453 µM | > 49.5 µM
CN(C)CC(C(=O)Cc1ccccc1)c1ccccc1 (stereo not given) | 0.494 µM | 2.05 µM
O=C1C(=O)c2ccccc2C(O)=C1CCCc1ccc(C2CCCCCC2)cc1 | 0.397 µM | 17.2 µM
CCCCNC(=O)Oc1ccc(/C(=C(/C)Cc2ccc(OC)cc2)c2ccc(OCCN3CCCC3)cc2)cc1 | 1.72 µM | 3.43 µM
C#C[C@]1(O)CC[C@H]2[C@@H]3CC=C4c5sc(Nc6cc(OC)ccc6OC)nc5CC[C@]4(C)[C@H]3CC[C@@]21C | 1.53 µM | 3.96 µM
CN(c1ccc(Br)cc1)S(=O)(=O)c1ccc(-c2cnc(C3CC3)o2)cc1 | 0.0414 µM | –
COc1cc(C2C3=C(COC3=O)Nc3c2ccc2c3CCCC2)cc2c1OCO2 (stereo not given) | 0.0287 µM | 0.0986 µM
Cc1[nH]c(-c2nc3ccccc3[nH]2)c(C)c1C(=O)NC(C)C1CCCCC1 (stereo not given) | 6.82 µM | 28.3 µM

SMILES | GI50 | TGI
Cc1cc(C(=O)NC(CCC(=O)O)C(=O)O)sc1CCC1CNc2nc(N)[nH]c(=O)c2C1 (stereo not given) | 0.0584 µM and 0.0838 µM | > 100 µM
COc1ccc2c(c1)CCCN2S(=O)(=O)c1ccccc1[N+](=O)[O-] | 25.7 µM | 95.1 µM
Nc1nc(N)c2c(n1)NC(c1ccccc1)C1CCc3ccccc3C1=N2 (stereo not given) | 0.473 µM | 3.25 µM
CCN(CC)CCN(Cc1ccc(F)cc1)c1ccc(CO)c(Cl)c1 | 0.43 µM | 1.75 µM
COc1ccc(/C=C2\CN(Cc3cn(CCNc4ccnc5cc(Cl)ccc45)nn3)C/C(=C\c3ccc(OC)c(OC)c3)C2=O)cc1OC | 1.51 µM | 4.41 µM
C[n+]1c(-c2ccc(/C=N/NC(=O)c3ccc(C(=O)N/N=C/c4ccc(-c5cn6ccccc6[n+]5C)cc4)cc3)cc2)cn2ccccc21 | 114 µM | 326 µM
CCCCC(=O)N/N=C/c1c(O)ccc2ccccc12 | 0.999 µM | 11.7 µM
N#Cc1c(N)nc(N)nc1N[C@H](c1nc2c(F)ccc(Cl)c2c(=O)n1-c1cccnc1)C1CC1 | 2.04 µM | 13.9 µM
COC(=O)/C=C1/SC(N2N=C(c3cccs3)CC2c2ccc(F)cc2)=NC1=O (stereo not given) | 1.94 µM | 4.37 µM
Cc1cc(C(=O)O)c(C)n1-c1cccc(C(=O)O)c1 | > 100 µM | > 100 µM
Cc1cc2nc3cc(C)c(N)cc3[n+](-c3ccccc3)c2cc1N | 0.0798 µM | 1.12 µM
CCCCNC(=O)c1cc(NCc2cc(O)ccc2O)ccc1O | 12.3 µM | 33.9 µM
CN1CCN(c2nc(NCCCNc3ccnc4cc(Cl)ccc34)c3ccccc3n2)CC1 | 2.14 µM | 6.14 µM
COc1ccc2c(Cl)cc(NC(=O)Nc3c(C)cccc3C)nc2c1 | 84.8 µM | > 100 µM
Cn1c2ccccc2c2c3[nH][nH]c(=O)c3c3c4ccccc4[nH]c3c21 | 2.28 µM | 9.19 µM
Cc1ccc(C2=Nc3c(N)ncnc3NC(c3ccc4c(c3)OCO4)C2)cc1 (stereo not given) | 3.68 µM | > 100 µM
CCCNC(=O)c1ccc(Cl)cc1Cl | > 100 µM | > 100 µM
C[C@]12CC[C@H]3[C@@H](C[C@@H]4SC(Nc5ccccc5)=N[C@@]45CC(O)CC[C@]35C)[C@@H]1CCC2O (stereo not given in full) | 1.72 µM | 3.38 µM
CC(C)n1nc(-c2ccc3oc(N)nc3c2)c2c(N)ncnc21 | < 0.01 µM and 0.0101 µM | 0.0649 µM and 0.0633 µM
N=C(N)c1ccc(-c2ccc(-c3cccs3)s2)s1 | 0.217 µM | 0.651 µM
Cc1nc(N)sc1-c1csc(Nc2ccc(C(F)(F)F)cc2)n1 | 2.25 µM | 8.77 µM
CCOC(=O)c1c(C)nc2c(c1N)CC(=O)N2CCc1ccccc1 | 2.39 µM | 30 µM
Cc1[nH]nc2c1N=C(c1ccccc1F)c1cc(C(N)=O)ccc1N2 | 1.16 µM | 8 µM
O=[n+]1c2ccccc2n([O-])c2cc(Cl)ccc21 | 1.24 µM | 4.96 µM
